Experiments:
[1] = test system: Puccinia recondita f. sp. tritici; assay: Fungicidal activity against Puccinia recondita f. sp. tritici / wheat / leaf disc preventative (brown rust); type: in vivo; settings: foliar, 200 ppm in the applied formulation, wheat leaf segments cv. Kanzler, preventative (inoculated 1 day after application), assessed 7 to 9 days after application, read-out: disease control compared to untreated control leaf disks
Summary of the method: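 Preventative leaf-segment test: compound sprayed at 200 ppm onto wheat (cv. Kanzler) segments, brown rust spores applied 1 day after. Kept at 19C and 75% rh under 12 h light/dark cycles; disease control versus untreated check read 7 to 9 days post-application.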

Uromyces viciae-fabae = assay: Fungicidal activity against Uromyces viciae-fabae / field bean / leaf disc preventative (faba-bean rust); type: in vivo; settings: foliar, 288 h, 100 ppm in the applied formulation, field bean leaf discs, preventative (inoculated two hours after application), assessed 12 days after application, read-out: disease control compared to untreated control leaf discs
Method: Leaf disks or leaf segments of various plant species are cut from plants grown in a greenhouse. The cut leaf disks or segments are placed in multiwell plates (24-well format) onto water agar. The leaf disks are sprayed with a test solution before (preventative) or after (curative) inoculation. Compounds to be tested are prepared as DMSO solutions (max. 10 mg/ml) which are diluted to the appropriate concentration with 0.025% Tween20 just before spraying. The inoculated leaf disks or segments are incubated under defined conditions (temperature, relative humidity, light, etc.) according to the respective test system. A single evaluation of disease level is carried out 3 to 14 days after inoculation, depending on the pathosystem. Percent disease control relative to the untreated check leaf disks or segments is then calculated. General Examples of Liquid Culture Tests in Well Plates:
Example 5: Fungicidal Activity Against Uromyces viciae-fabae/Field Bean/Leaf Disc Preventative (Faba-Bean Rust)
Field bean leaf discs are placed on water agar in multiwell plates (96-well format) and 10 μl of the formulated test compound diluted in acetone and a spreader pipetted onto the leaf disc. Two hours after application leaf discs are inoculated by spraying a spore suspension on the lower leaf surface. The leaf discs are incubated in a climate cabinet at 22° C. with 18 hour day and 70% relative humidity. The activity of a compound is assessed as percent disease control compared to untreated when an appropriate level of disease damage appears in untreated check leaf disks (12 days after application).
The following compounds at 100 ppm in the applied formulation give at least 80% disease control in this test when compared to untreated control leaf discs under the same conditions, which show extensive disease development.

Phakopsora pachyrhizi = assay: Fungicidal activity against Phakopsora pachyrhizi / soybean / leaf disc preventative (Asian soybean rust); type: in vivo; settings: foliar, 200 ppm in the applied formulation, soybean leaf disks, preventative (inoculated one day after application), assessed 12 to 14 days after application, read-out: disease control compared to untreated control leaf disks
Summary of the method: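 Preventative test: compound applied to soybean leaf discs a day before spore inoculation of the lower surface. Discs kept at 20° C and 75% rh, first 24-36 h in darkness, then under 12 h light/day; disease control relative to untreated discs rated 12 to 14 days post-application.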

[2] = test system: Puccinia recondita f. sp. tritici; assay: Fungicidal activity against Puccinia recondita f. sp. tritici / wheat / leaf disc curative (brown rust); type: in vivo; settings: foliar, 200 ppm in the applied formulation, wheat leaf segments cv. Kanzler, curative (applied 1 day after inoculation), assessed 6 to 8 days after application, read-out: disease control compared to untreated control leaf disks
Summary of the method: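 Curative test: compound, diluted from DMSO stock into water, applied one day after spore inoculation of wheat (cv. Kanzler) leaf segments kept on agar in darkness at 19° C. and 75% RH. Climate-cabinet incubation (19° C., 75% RH, 12 h photoperiod); disease control relative to untreated read 6–8 days post-application.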

[3] = test system: Glomerella laqenarium (Colletotrichum lagenarium); assay: Fungicidal activity against Glomerella lagenarium (Colletotrichum lagenarium) liquid culture / cucumber / preventative (anthracnose); type: cell-based; settings: Colletotrichum orbiculare; 20 ppm in the applied formulation; liquid culture in PDB, 24° C., 3 to 4 days after application; read-out: disease control compared to untreated control (inhibition of growth measured photometrically)
Summary of the method: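 Test compound, applied from DMSO solution, is combined with PDB containing conidia taken from cryogenic storage. After 3–4 days at 24 °C, growth is measured photometrically and antifungal activity expressed as percent relative to untreated control.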

Compound	pest or weed control at 200 ppm [1] [%]	pest or weed control at 100 ppm (Uromyces viciae-fabae) [%]	pest or weed control at 200 ppm (Phakopsora pachyrhizi) [%]	pest or weed control at 200 ppm [2] [%]	inhibition at 20 ppm [3] [%]
O=C(N[C@H]1CCN(Cc2ccccc2)C1)c1ccc(-c2noc(C(F)(F)F)n2)cc1 [Compound 1a.6, N-[(3S)-1-benzylpyrrolidin-3-yl]-4-[5-(trifluoromethyl)-1,2,4-oxadiazol-3-yl]benzamide]	≥ 80	≥ 80	–	–	–
O=C(NC1CCSC1)c1ccc(-c2noc(C(F)(F)F)n2)cc1F (stereo not shown) [Compound 1b.11, 2-fluoro-N-tetrahydrothiophen-3-yl-4-[5-(trifluoromethyl)-1,2,4-oxadiazol-3-yl]benzamide]	≥ 80	≥ 80	–	–	–
CC(C)(C)c1cc(NC(=O)c2ccc(-c3noc(C(F)(F)F)n3)cc2)[nH]n1 [Compound 5a.2, N-(3-tert-butyl-1H-pyrazol-5-yl)-4-[5-(trifluoromethyl)-1,2,4-oxadiazol-3-yl]benzamide]	–	≥ 80	≥ 80	–	–
O=C(NC1CCCCCCC1)c1ccc(-c2noc(C(F)(F)F)n2)cc1 [Compound 2a.5, N-cyclooctyl-4-[5-(trifluoromethyl)-1,2,4-oxadiazol-3-yl]benzamide]	–	≥ 80	≥ 80	–	–
CCOC(=O)N1CCC(NC(=O)c2ccc(-c3noc(C(F)(F)F)n3)cc2F)CC1 [Compound 1b.4, ethyl 4-[[2-fluoro-4-[5-(trifluoromethyl)-1,2,4-oxadiazol-3-yl]benzoyl]amino]piperidine-1-carbonylate]	≥ 80	≥ 80	–	–	–
Cc1ccc(C)c(CNC(=O)c2ccc(-c3noc(C(F)(F)F)n3)cc2)c1 [Compound 4a.11, N-[(2,5-dimethylphenyl)methyl]-4-[5-(trifluoromethyl)-1,2,4-oxadiazol-3-yl]benzamide]	–	≥ 80	≥ 80	–	–
CC1CCCC(NC(=O)c2ccc(-c3noc(C(F)(F)F)n3)cc2)C1 (stereo not shown) [Compound 2a.2, N-(3-methylcyclohexyl)-4-[5-(trifluoromethyl)-1,2,4-oxadiazol-3-yl]benzamide]	–	≥ 80	≥ 80	–	–
O=C(Nc1ccc(F)cc1)c1ccc(-c2noc(C(F)(F)F)n2)cc1 [Compound 4a.8, N-(4-fluorophenyl)-4-[5-(trifluoromethyl)-1,2,4-oxadiazol-3-yl]benzamide]	–	≥ 80	≥ 80	–	–
O=C(NC1CC1c1ccccc1)c1ccc(-c2noc(C(F)(F)F)n2)cc1F (stereo not shown) [Compound 2b.7, 2-fluoro-N-(2-phenylcyclopropyl)-4-[5-(trifluoromethyl)-1,2,4-oxadiazol-3-yl]benzamide]	–	≥ 80	≥ 80	–	–
CN(CC1CCCCN1C)C(=O)c1ccc(-c2noc(C(F)(F)F)n2)cc1 (stereo not shown) [Compound 1a.10, N-methyl-N-[(1-methyl-2-piperidyl)methyl]-4-[5-(trifluoromethyl)-1,2,4-oxadiazol-3-yl]benzamide]	≥ 80	≥ 80	–	–	–
C[C@@H](NC(=O)c1ccc(-c2noc(C(F)(F)F)n2)cc1)C1CCCCC1 [Compound 2a.8, N-[(1R)-1-cyclohexylethyl]-4-[5-(trifluoromethyl)-1,2,4-oxadiazol-3-yl]benzamide]	–	≥ 80	≥ 80	–	–
CCc1cccc(NC(=O)c2ccc(-c3noc(C(F)(F)F)n3)cc2)c1 [Compound 4a.10, N-(3-ethylphenyl)-4-[5-(trifluoromethyl)-1,2,4-oxadiazol-3-yl]benzamide]	–	≥ 80	≥ 80	–	–
O=C(Nc1ccc(Cl)cc1)c1ccc(-c2noc(C(F)(F)F)n2)cc1 [Compound 4a.6, N-(4-chlorophenyl)-4-[5-(trifluoromethyl)-1,2,4-oxadiazol-3-yl]benzamide]	–	≥ 80	≥ 80	–	–
O=C(Nc1ccccc1)c1ccc(-c2noc(C(F)(F)F)n2)cc1F [Compound 4b.12, 2-fluoro-N-phenyl-4-[5-(trifluoromethyl)-1,2,4-oxadiazol-3-yl]benzamide]	–	≥ 80	≥ 80	–	–
O=C(Nc1ccccc1F)c1ccc(-c2noc(C(F)(F)F)n2)cc1 [Compound 4a.7, N-(2-fluorophenyl)-4-[5-(trifluoromethyl)-1,2,4-oxadiazol-3-yl]benzamide]	–	≥ 80	≥ 80	–	–
CC(C)(C)c1cc(NC(=O)c2ccc(-c3noc(C(F)(F)F)n3)cc2F)[nH]n1 [Compound 5b.6, N-(3-tert-butyl-1H-pyrazol-5-yl)-2-fluoro-4-[5-(trifluoromethyl)-1,2,4-oxadiazol-3-yl]benzamide]	–	≥ 80	≥ 80	–	–
O=C(Nc1cccc(C(F)(F)F)c1)c1ccc(-c2noc(C(F)(F)F)n2)cc1 [Compound 4a.9, 4-[5-(trifluoromethyl)-1,2,4-oxadiazol-3-yl]-N-[3-(trifluoromethyl)phenyl]benzamide]	–	≥ 80	≥ 80	–	–
CCC(COC)NC(=O)c1ccc(-c2noc(C(F)(F)F)n2)cc1 (stereo not shown) [Compound 3a.9, N-[1-(methoxymethyl)propyl]-4-[5-(trifluoromethyl)-1,2,4-oxadiazol-3-yl]benzamide]	≥ 80	–	≥ 80	≥ 80	≥ 80
O=C(Nc1ccc(N2CCOCC2)cc1)c1ccc(-c2noc(C(F)(F)F)n2)cc1 [Compound 4a.12, N-(4-morpholinophenyl)-4-[5-(trifluoromethyl)-1,2,4-oxadiazol-3-yl]benzamide]	–	≥ 80	≥ 80	–	–
O=C(NCCCCCO)c1ccc(-c2noc(C(F)(F)F)n2)cc1F [Compound 3b.22, 2-fluoro-N-(5-hydroxypentyl)-4-[5-(trifluoromethyl)-1,2,4-oxadiazol-3-yl]benzamide]	≥ 80	–	≥ 80	≥ 80	≥ 80
CCN(CC)C(=O)c1ccc(-c2noc(C(F)(F)F)n2)cc1F [Compound 3b.32, N,N-diethyl-2-fluoro-4-[5-(trifluoromethyl)-1,2,4-oxadiazol-3-yl]benzamide]	≥ 80	–	≥ 80	≥ 80	≥ 80
O=C(NCCCCO)c1ccc(-c2noc(C(F)(F)F)n2)cc1 [Compound 3a.24, N-(4-hydroxybutyl)-4-[5-(trifluoromethyl)-1,2,4-oxadiazol-3-yl]benzamide]	≥ 80	–	≥ 80	≥ 80	≥ 80
CCOCCCNC(=O)c1ccc(-c2noc(C(F)(F)F)n2)cc1 [Compound 3a.22, N-(3-ethoxypropyl)-4-[5-(trifluoromethyl)-1,2,4-oxadiazol-3-yl]benzamide]	≥ 80	–	≥ 80	≥ 80	≥ 80
O=C(NCCCn1ccnc1)c1ccc(-c2noc(C(F)(F)F)n2)cc1F [Compound 5b.12, 2-fluoro-N-(3-imidazol-1-ylpropyl)-4-[5-(trifluoromethyl)-1,2,4-oxadiazol-3-yl]benzamide]	–	≥ 80	≥ 80	–	–

Source: US10959432B2, “Microbiocidal oxadiazole derivatives” (Syngenta Participations AG, priority 2016, dated 2021)
